Earlier results in patent publication US8435963B2, “Weight loss compositions and uses thereof” (priority 2008, dated 2013).
Where a name gives a salt, the structure may show the parent alone. Read-outs that look alike come from different tables or passages of the source.

| half-life (humans) | half-life (human, in vivo) | SMILES |
| --- | --- | --- |
| 2.5 h | – | COC(=O)[C@@H]1[C@H]2C[C@H]3c4[nH]c5ccccc5c4CCN3C[C@@H]2CC[C@@H]1O [yohimbine HCl, 17α-hydroxy-yohimban-16α-carboxylic acid methyl ester] |
| – | 8 to 11 h | COC(=O)[C@@H]1[C@H]2C[C@H]3c4[nH]c5cc(O)ccc5c4CCN3C[C@@H]2CC[C@@H]1O [11-Hydroxy yohimbine] |
